# Counter-ions that a name gives are not always drawn.
# Assays:
# COLO-741 = test: cells; format: functional, cell-based, Homo sapiens; conditions: Homo sapiens, COLO-741
# Description: SANGER: Inhibition of human COLO-741 cell growth in a cell viability assay.
# Ca-Ski = test: cells; format: functional, cell-based, Homo sapiens; conditions: Homo sapiens, Ca-Ski;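 also: cell viability assay measuring inhibition of Ca-Ski cell growth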
# Description: SANGER: Inhibition of human Ca-Ski cell growth in a cell viability assay.
# Detroit 562 = test: cells; format: functional, cell-based, Homo sapiens; conditions: Homo sapiens, Detroit 562;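 also: growth inhibition of human Detroit 562 cells, read out by a cell viability assay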
# Description: SANGER: Inhibition of human Detroit562 cell growth in a cell viability assay.
# DoTc2-4510 = test: cells; format: functional, cell-based, Homo sapiens; conditions: Homo sapiens, DoTc2-4510
# G-361 = test: cells; format: functional, cell-based, Homo sapiens; conditions: Homo sapiens, G-361
# GAMG = test: cells; format: functional, cell-based, Homo sapiens; conditions: Homo sapiens, GAMG;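 also: cell growth inhibition measured by a viability assay in the GAMG human cell line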
# Description: SANGER: Inhibition of human GAMG cell growth in a cell viability assay.
# HCC70 = test: cells; format: functional, cell-based, Homo sapiens; conditions: Homo sapiens, HCC70;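 also: cell viability assay measuring how strongly the compound suppresses proliferation of HCC70 cells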
# Description: SANGER: Inhibition of human HCC70 cell growth in a cell viability assay.
# HCT-15 = test: cells; format: functional, cell-based, Homo sapiens; conditions: Homo sapiens, HCT-15;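 also: cell viability readout, IC50 reflecting suppression of HCT-15 cell growth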
# Description: SANGER: Inhibition of human HCT-15 cell growth in a cell viability assay.
# HPAF-II = test: cells; format: functional, cell-based, Homo sapiens; conditions: Homo sapiens, HPAF-II;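 also: growth inhibition of HPAF-II cells, read out with a cell viability assay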
# Description: SANGER: Inhibition of human HPAF-II cell growth in a cell viability assay.
# HSC-2 = test: cells; format: functional, cell-based, Homo sapiens; conditions: Homo sapiens, HSC-2;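 also: growth inhibition of human HSC-2 cells, read out by a cell viability assay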
# Description: SANGER: Inhibition of human HSC-2 cell growth in a cell viability assay.
# KYSE-140 = test: cells; format: functional, cell-based, Homo sapiens; conditions: Homo sapiens, KYSE-140;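 also: cell viability assay measuring growth inhibition in human KYSE-140 cells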
# Description: SANGER: Inhibition of human KYSE-140 cell growth in a cell viability assay.
# L-540 = test: cells; format: functional, cell-based, Homo sapiens; conditions: Homo sapiens, L-540;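 also: growth inhibition of the human L-540 cell line, read out with a viability assay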
# Description: SANGER: Inhibition of human L-540 cell growth in a cell viability assay.
# LN-405 = test: cells; format: functional, cell-based, Homo sapiens; conditions: Homo sapiens, LN-405
# Description: SANGER: Inhibition of human LN-405 cell growth in a cell viability assay.
# MDA-MB-415 = test: cells; format: functional, cell-based, Homo sapiens; conditions: Homo sapiens, MDA-MB-415
# MFE-280 = test: cells; format: functional, cell-based, Homo sapiens; conditions: Homo sapiens, MFE-280;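 also: growth inhibition of MFE-280 cells, determined with a cell viability readout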
# Description: SANGER: Inhibition of human MFE-280 cell growth in a cell viability assay.
# MIA PaCa-2 = test: cells; format: functional, cell-based, Homo sapiens; conditions: Homo sapiens, MIA PaCa-2;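 also: growth inhibition of MIA PaCa-2 cells, read out with a cell viability assay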
# Description: SANGER: Inhibition of human MIA-PaCa-2 cell growth in a cell viability assay.
# MeWo = test: cells; format: functional, cell-based, Homo sapiens; conditions: Homo sapiens, MeWo;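 also: growth inhibition of MeWo cells, determined by a cell viability readout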
# Description: SANGER: Inhibition of human Mewo cell growth in a cell viability assay.
# NCCIT = test: SANGER: Inhibition of human NCCIT cell growth in a cell viability assay.; format: functional, cell-based; conditions: Homo sapiens, NCCIT
# NCI-H1694 = test: cells; format: functional, cell-based, Homo sapiens; conditions: Homo sapiens, NCI-H1694;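 also: cell viability assay measuring inhibition of growth in human NCI-H1694 cells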
# Description: SANGER: Inhibition of human NCI-H1694 cell growth in a cell viability assay.
# NCI-H1882 = test: cells; format: functional, cell-based, Homo sapiens; conditions: Homo sapiens, NCI-H1882;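 also: growth inhibition of the cell line, determined with a viability assay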
# Description: SANGER: Inhibition of human NCI-H1882 cell growth in a cell viability assay.
# NCI-H1963 = test: cells; format: functional, cell-based, Homo sapiens; conditions: Homo sapiens, NCI-H1963;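 also: cell growth inhibition of the human line, determined with a cell viability assay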
# Description: SANGER: Inhibition of human NCI-H1963 cell growth in a cell viability assay.
# NCI-H2170 = test: cells; format: functional, cell-based, Homo sapiens; conditions: Homo sapiens, NCI-H2170;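 also: cell viability assay measuring growth inhibition of human NCI-H2170 cancer cells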
# Description: SANGER: Inhibition of human NCI-H2170 cell growth in a cell viability assay.
# NCI-H2228 = test: cells; format: functional, cell-based, Homo sapiens; conditions: Homo sapiens, NCI-H2228;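 also: growth inhibition of human NCI-H2228 cells, read out by a cell viability assay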
# Description: SANGER: Inhibition of human NCI-H2228 cell growth in a cell viability assay.
# NCI-H520 = test: cells; format: functional, cell-based, Homo sapiens; conditions: Homo sapiens, NCI-H520;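 also: growth inhibition of NCI-H520 cells, measured by a cell viability assay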
# Description: SANGER: Inhibition of human NCI-H520 cell growth in a cell viability assay.
# NCI-H524 = test: cells; format: functional, cell-based, Homo sapiens; conditions: Homo sapiens, NCI-H524;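 also: growth inhibition of human NCI-H524 cells, read out through a cell viability assay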
# Description: SANGER: Inhibition of human NCI-H524 cell growth in a cell viability assay.
# NCI-H596 = test: cells; format: functional, cell-based, Homo sapiens; conditions: Homo sapiens, NCI-H596;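 also: growth inhibition of NCI-H596 cells, read out with a cell viability assay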
# Description: SANGER: Inhibition of human NCI-H596 cell growth in a cell viability assay.
# NCI-H650 = test: cells; format: functional, cell-based, Homo sapiens; conditions: Homo sapiens, NCI-H650;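 also: growth inhibition of NCI-H650 cells, read out by a viability assay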
# Description: SANGER: Inhibition of human NCI-H650 cell growth in a cell viability assay.
# NCI-H716 = test: cells; format: functional, cell-based, Homo sapiens; conditions: Homo sapiens, NCI-H716;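 also: growth inhibition of human NCI-H716 cells, measured by a cell viability assay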
# Description: SANGER: Inhibition of human NCI-H716 cell growth in a cell viability assay.
# OPM-2 = test: cells; format: functional, cell-based, Homo sapiens; conditions: Homo sapiens, OPM-2;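 also: growth of OPM-2 cells measured with a viability assay, IC50 for suppression of proliferation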
# Description: SANGER: Inhibition of human OPM-2 cell growth in a cell viability assay.
# SK-MEL-28 = test: cells; format: functional, cell-based, Homo sapiens; conditions: Homo sapiens, SK-MEL-28;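 also: growth inhibition of human SK-MEL-28 cells, read out with a cell viability assay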
# Description: SANGER: Inhibition of human SK-MEL-28 cell growth in a cell viability assay.
# SK-MES-1 = test: cells; format: functional, cell-based, Homo sapiens; conditions: Homo sapiens, SK-MES-1;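 also: growth inhibition of human SK-MES-1 cells, read out with a cell viability assay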
# Description: SANGER: Inhibition of human SK-MES-1 cell growth in a cell viability assay.
# SK-MM-2 = test: cells; format: functional, cell-based, Homo sapiens; conditions: Homo sapiens, SK-MM-2;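 also: growth inhibition of human SK-MM-2 cells, read out with a cell viability assay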
# Description: SANGER: Inhibition of human SK-MM-2 cell growth in a cell viability assay.
# SNU-C1 = test: cells; format: functional, cell-based, Homo sapiens; conditions: Homo sapiens, SNU-C1;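 also: growth inhibition of SNU-C1 human cells, read out by a cell viability assay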
# Description: SANGER: Inhibition of human SNU-C1 cell growth in a cell viability assay.
# SW1573 = test: cells; format: functional, cell-based, Homo sapiens; conditions: Homo sapiens, SW1573;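 also: growth inhibition of SW1573 cells, read out with a cell viability assay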
# Description: SANGER: Inhibition of human SW1573 cell growth in a cell viability assay.
# SW1783 = test: cells; format: functional, cell-based, Homo sapiens; conditions: Homo sapiens, SW1783
# Description: SANGER: Inhibition of human SW1783 cell growth in a cell viability assay.
# SW626 = test: cells; format: functional, cell-based, Homo sapiens; conditions: Homo sapiens, SW626;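 also: growth inhibition of SW626 cells, measured with a cell viability assay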
# Description: SANGER: Inhibition of human SW626 cell growth in a cell viability assay.
# T84 = test: cells; format: functional, cell-based, Homo sapiens; conditions: Homo sapiens, T84;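 also: growth inhibition measured with a cell viability readout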
# Description: SANGER: Inhibition of human T84 cell growth in a cell viability assay.
# 647-V = test: cells; format: functional, cell-based, Homo sapiens; conditions: Homo sapiens, 647-V;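 also: growth inhibition of 647-V cells, read out with a cell viability assay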
# Description: SANGER: Inhibition of human 647-V cell growth in a cell viability assay.
# 786-0 = test: cells; format: functional, cell-based, Homo sapiens; conditions: Homo sapiens
# Description: SANGER: Inhibition of human 786-0 cell growth in a cell viability assay.
# 8305C = test: cells; format: functional, cell-based, Homo sapiens; conditions: Homo sapiens, 8305C
# Description: SANGER: Inhibition of human 8305C cell growth in a cell viability assay.
# TYK-nu = test: cells; format: functional, cell-based, Homo sapiens; conditions: Homo sapiens, TYK-nu;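 also: growth inhibition of human TYK-nu cells, read out by a cell viability assay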
# Description: SANGER: Inhibition of human TYK-nu cell growth in a cell viability assay.
# UMC-11 = test: cells; format: functional, cell-based, Homo sapiens; conditions: Homo sapiens, UMC-11;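 also: growth inhibition of UMC-11 cells, read out with a cell viability assay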
# Description: SANGER: Inhibition of human UMC-11 cell growth in a cell viability assay.
# VMRC-RCZ = test: cells; format: functional, cell-based, Homo sapiens; conditions: Homo sapiens, VMRC-RCZ
# Description: SANGER: Inhibition of human VMRC-RCZ cell growth in a cell viability assay.
# WM-115 = test: cells; format: functional, cell-based, Homo sapiens; conditions: Homo sapiens, WM-115
# Description: SANGER: Inhibition of human WM-115 cell growth in a cell viability assay.
# CAPAN-1 = test: cells; format: functional, cell-based, Homo sapiens; conditions: Homo sapiens, CAPAN-1;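 also: growth suppression of CAPAN-1 cells, read out by a cell viability assay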
# Description: SANGER: Inhibition of human CAPAN-1 cell growth in a cell viability assay.
# CHL-1 = test: cells; format: functional, cell-based, Homo sapiens; conditions: Homo sapiens, CHL-1;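 also: cell growth inhibition, read out with a cell viability assay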
# Description: SANGER: Inhibition of human CHL-1 cell growth in a cell viability assay.
# COLO-679 = test: cells; format: functional, cell-based, Homo sapiens; conditions: Homo sapiens, COLO-679
# Description: SANGER: Inhibition of human COLO-679 cell growth in a cell viability assay.
smiles,measurement,setting,value
COC1=CC(c2cc3ccccc3[nH]2)=N/C1=C\c1[nH]c(C)cc1C [OBATOCLAX MESYLATE],IC50,COLO-741,316 nM
same,IC50,Ca-Ski,405 nM
same,IC50,Detroit 562,489 nM
same,IC50,DoTc2-4510,33.9 nM
same,IC50,G-361,< 62.5 nM
same,IC50,GAMG,58 nM
same,IC50,HCC70,1460 nM
same,IC50,HCT-15,225 nM
same,IC50,HPAF-II,1940 nM
same,IC50,HSC-2,24.7 nM
same,IC50,KYSE-140,< 62.5 nM
same,IC50,L-540,216 nM
same,IC50,LN-405,1390 nM
same,IC50,MDA-MB-415,2180 nM
same,IC50,MFE-280,963 nM
same,IC50,MIA PaCa-2,233 nM
same,IC50,MeWo,4960 nM
same,IC50,NCCIT,1380 nM
same,IC50,NCI-H1694,919 nM
same,IC50,NCI-H1882,4510 nM
same,IC50,NCI-H1963,1050 nM
same,IC50,NCI-H2170,683 nM
same,IC50,NCI-H2228,893 nM
same,IC50,NCI-H520,129 nM
same,IC50,NCI-H524,9590 nM
same,IC50,NCI-H596,236 nM
same,IC50,NCI-H650,283 nM
same,IC50,NCI-H716,1690 nM
same,IC50,OPM-2,509 nM
same,IC50,SK-MEL-28,1230 nM
same,IC50,SK-MES-1,129 nM
same,IC50,SK-MM-2,577 nM
same,IC50,SNU-C1,> 16000 nM
same,IC50,SW1573,2020 nM
same,IC50,SW1783,193 nM
same,IC50,SW626,72 nM
same,IC50,T84,212 nM
same,IC50,647-V,104 nM
same,IC50,786-0,< 62.5 nM
same,IC50,8305C,180 nM
same,IC50,TYK-nu,179 nM
same,IC50,UMC-11,1400 nM
same,IC50,VMRC-RCZ,403 nM
same,IC50,WM-115,4510 nM
same,IC50,CAPAN-1,523 nM
same,IC50,CHL-1,48.6 nM
same,IC50,COLO-679,< 62.5 nM

# Reference: ChEMBL document CHEMBL1201861, “Genomics of Drug Sensitity in Cancer screening data, Wellcome Trust Sanger Institute”
